Laboratory results as given in the CheMixHub viscosity set.
± gives the uncertainty stated by the source.

Assay: xn = mol fraction of the nth substance listed
Conditions: 101 kPa

Clc1ccccc1Cl + CC#N
308.15 K
Conditions | viscosity [mPa·s]
x1 = 0.1003 | 0.3803 ± 0.0088
x1 = 0.2063 | 0.4569 ± 0.01
x1 = 0.3069 | 0.5299 ± 0.011
x1 = 0.4058 | 0.6077 ± 0.013
x1 = 0.4918 | 0.676 ± 0.014
x1 = 0.5925 | 0.7617 ± 0.016
x1 = 0.6956 | 0.8443 ± 0.017
x1 = 0.7945 | 0.9395 ± 0.019
x1 = 0.9016 | 1.027 ± 0.021

[O-][Cl+3]([O-])([O-])O + CC(=O)O
viscosity [mPa·s]
Conditions | x1 = 0.2029 | x1 = 0.3254 | x1 = 0.4484 | x1 = 0.5117
293.15 K | 0.2653 ± 0.007 | 0.6193 ± 0.016 | 0.4081 ± 0.011 | 0.2388 ± 0.0064
308.15 K | 0.1146 ± 0.0032 | 0.2603 ± 0.0073 | 0.1883 ± 0.0052 | 0.1226 ± 0.0033
323.15 K | – | 0.1268 ± 0.0039 | – | –

CC(C)c1ccccc1 + CC(C)(C)O
viscosity [mPa·s]
Conditions | x2 = 0.0995 | x2 = 0.2007 | x2 = 0.3001 | x2 = 0.3998 | x2 = 0.5009 | x2 = 0.6007 | x2 = 0.7002 | x2 = 0.8005 | x2 = 0.9002
303.15 K | 0.6893 ± 0.0055 | 0.7128 ± 0.0055 | 0.7481 ± 0.0056 | 0.7954 ± 0.0058 | 0.8754 ± 0.0061 | 0.9692 ± 0.0066 | 1.129 ± 0.0075 | 1.415 ± 0.0091 | 1.874 ± 0.013
308.15 K | 0.6458 ± 0.0052 | 0.6665 ± 0.0052 | 0.6941 ± 0.0053 | 0.7344 ± 0.0054 | 0.8007 ± 0.0057 | 0.8782 ± 0.006 | 1.007 ± 0.0067 | 1.232 ± 0.0079 | 1.578 ± 0.0099
313.15 K | 0.6059 ± 0.0049 | 0.6215 ± 0.0049 | 0.6451 ± 0.0049 | 0.6782 ± 0.005 | 0.7352 ± 0.0053 | 0.798 ± 0.0055 | 0.9019 ± 0.0061 | 1.08 ± 0.007 | 1.343 ± 0.0085
318.15 K | 0.5703 ± 0.0047 | 0.5814 ± 0.0046 | 0.6002 ± 0.0046 | 0.6279 ± 0.0047 | 0.6742 ± 0.0049 | 0.7269 ± 0.0051 | 0.8117 ± 0.0055 | 0.9531 ± 0.0063 | 1.153 ± 0.0074
323.15 K | 0.537 ± 0.0044 | 0.5452 ± 0.0044 | 0.5604 ± 0.0044 | 0.5835 ± 0.0044 | 0.6218 ± 0.0046 | 0.6649 ± 0.0047 | 0.7349 ± 0.0051 | 0.8485 ± 0.0056 | 1.001 ± 0.0064

CCCN + CC(C)(C)O
298.15 K
Conditions | viscosity [mPa·s]
x2 = 0.0967 | 0.512 ± 0.005
x2 = 0.2039 | 0.727 ± 0.007
x2 = 0.3012 | 0.969 ± 0.01
x2 = 0.4 | 1.263 ± 0.012
x2 = 0.4992 | 1.614 ± 0.016
x2 = 0.5874 | 1.975 ± 0.02
x2 = 0.6813 | 2.415 ± 0.024
x2 = 0.7999 | 3.09 ± 0.031
x2 = 0.9183 | 3.806 ± 0.04

O=C(O)c1cc(O)c(O)c(O)c1 + CC(C)=O
viscosity [mPa·s]
Conditions | 293.15 K | 298.15 K | 303.15 K | 308.15 K | 313.15 K
x1 = 0.0034 | 0.361 ± 0.01 | 0.345 ± 0.009 | 0.332 ± 0.009 | 0.318 ± 0.009 | 0.307 ± 0.008
x1 = 0.0069 | 0.383 ± 0.01 | 0.367 ± 0.01 | 0.348 ± 0.009 | 0.337 ± 0.009 | 0.323 ± 0.009
x1 = 0.01 | 0.401 ± 0.011 | 0.388 ± 0.01 | 0.368 ± 0.01 | 0.352 ± 0.009 | 0.338 ± 0.009
x1 = 0.014 | 0.424 ± 0.011 | 0.409 ± 0.011 | 0.383 ± 0.01 | 0.368 ± 0.01 | 0.356 ± 0.01
